Data as given in ChEMBL document CHEMBL1127984, “Beneficial replacement of the P1 phenylalanine side chain in HIV-1 protease inhibitors of the difluorostatone type” (Bioorg Med Chem Lett, 1994).

Key:
[1] = system: MT4; assay: […]; format: functional; conditions: Homo sapiens
[2] = Ratio between Cytotoxic dose and effective dose was determined; format: functional
[3] = target: Human immunodeficiency virus type 1 protease (Human immunodeficiency virus 1, UniProt Q72874); assay: Compound was tested for inactivation of purified HIV-1 protease in vitro
[4] = system: MT4; assay: Effective dose that inhibits cellular growth of MT-4 cells infected with HIV-1 RF strain; format: functional, cell-based; conditions: Homo sapiens
[5] = system: JM1; assay: Effective dose that inhibits cellular growth of JM cells infected with HIV-1 GB8 strain; format: functional, cell-based; conditions: Homo sapiens
[6] = system: H9; assay: Effective dose that inhibits cellular growth of H9 cells infected with HIV-1 IIIB strain; format: functional, cell-based; conditions: Homo sapiens
[7] = system: MT2; assay: Effective dose that inhibits cellular growth of MT2 cells infected with HIV-1 105/F strain; format: functional, cell-based; conditions: Homo sapiens
[8] = system: MT2; assay: Effective dose that inhibits cellular growth of MT2 cells infected with HIV-1 105/A strain; format: functional, cell-based; conditions: Homo sapiens
[9] = system: H9; assay: Effective dose that inhibits cellular growth of H9 cells infected with HIV-1 RF strain; format: functional, cell-based; conditions: Homo sapiens
[10] = system: C8166; assay: Effective dose that inhibits cellular growth of C8166 cells infected with HIV-1 RF strain; format: functional, cell-based; conditions: Homo sapiens
[11] = organism: Homo sapiens; assay: Effective dose that inhibits cellular growth of PBMCs cells infected with HIV-1 CCI strain; format: functional, cell-based; conditions: PBMC
[12] = system: H9; assay: Effective dose that inhibits cellular growth of H9 cells infected with HIV-1 U455 strain; format: functional, cell-based; conditions: Homo sapiens
[13] = system: C8166; assay: Effective dose that inhibits cellular growth of C8166 cells infected with HIV-2 rod strain; format: functional, cell-based; conditions: Homo sapiens
[14] = system: CCRF-CEM; assay: Effective dose that inhibits cellular growth of CEM cells infected with HIV-1 IIIB strain; format: functional, cell-based; conditions: Homo sapiens
[15] = system: C8166; assay: Cytotoxic dose against HIV-1 was determined in C8166 cells; format: functional; conditions: Homo sapiens
[16] = system: JM1; assay: Cytotoxic dose against HIV-1 GB8 strain was determined in JM cells; format: functional; conditions: Homo sapiens
[17] = system: C8166; assay: Effective dose that inhibits cellular growth of C8166 cells infected with SIV mac251 strain; conditions: Homo sapiens

Ki [3] [µM]	Compound	CC50 [1] [µM]	Ratio [2]	EC50 [4] [µM]	IC50 [3] [µM]	other results
0.07	CC(C)[C@H](NC(=O)OCc1ccccc1)C(=O)NC(Cc1ccccc1)C(=O)C(F)(F)C(=O)N1CCOCC1 (some centres undefined)	> 100	>2	50	–	–
–	O=C(NC(C(=O)NC(Cc1ccc(OCc2ccccc2)cc1)C(=O)C(F)(F)C(=O)NCc1ccccc1)C1CCCCC1)OCc1ccccc1 (centres undefined)	> 100	–	> 100	0.07	–
–	CC(C)[C@H](NC(=O)OC(C)(C)C)C(=O)NC(Cc1ccc(OCc2ccccc2)cc1)C(=O)C(F)(F)C(=O)NCc1ccccc1 (some centres undefined)	10	–	> 10	–	–
0.005	CC(C)[C@H](NC(=O)OCc1ccccc1)C(=O)NC(Cc1ccc(OCc2ccccc2)cc1)C(=O)C(F)(F)C(=O)N1CCOCC1 (some centres undefined)	64	20	3.2	–	–
–	CC(C)[C@H](NC(=O)OCc1ccccc1)C(=O)NC(Cc1ccccc1)C(=O)C(F)(F)C(=O)N1CCc2ccccc2C1 (some centres undefined)	–	–	–	0.05	–
–	CCN(Cc1ccccc1)C(=O)C(F)(F)C(=O)C(Cc1ccc(OCc2ccccc2)cc1)NC(=O)[C@@H](NC(=O)OCc1ccccc1)C(C)C (some centres undefined)	10	~1	8	0.015	–
–	CC(C)[C@H](NS(=O)(=O)Cc1ccccc1)C(=O)NC(Cc1ccc(OCc2ccccc2)cc1)C(=O)C(F)(F)C(=O)NCc1ccccc1 (some centres undefined)	–	–	–	48	–
0.0004	CC(C)[C@H](NC(=O)OCc1ccccc1)C(=O)NC(Cc1ccc(OCc2ccccc2)cc1)C(=O)C(F)(F)C(=O)N(C)Cc1ccccc1 (some centres undefined)	> 100	>300	0.28	–	–
–	CC(C)C[C@H](NC(=O)OCc1ccccc1)C(=O)NC(Cc1ccc(OCc2ccccc2)cc1)C(=O)C(F)(F)C(=O)NCc1ccccc1 (some centres undefined)	3.2	17	0.19	0.015	–
–	CC(C)[C@H](NC(=O)OCc1ccccc1)C(=O)NC(Cc1ccc(OCc2ccccc2)cc1)C(=O)C(F)(F)C(=O)N1CCc2ccccc2C1 (some centres undefined)	> 100	>280	0.36	0.002	–
–	O=C(NC(C(=O)NC(Cc1ccc(OCc2ccccc2)cc1)C(=O)C(F)(F)C(=O)NCc1ccccc1)C1CCCC1)OCc1ccccc1 (centres undefined)	> 100	>33	–	0.006	–
–	CC(C)[C@H](NC(=O)CCc1cccnc1)C(=O)NC(Cc1ccc(OCc2ccccc2)cc1)C(=O)C(F)(F)C(=O)NCc1ccccc1 (some centres undefined)	> 100	>100	0.32	0.008	–

Compound	Ki [3] [µM]	CC50 [1] [µM]	Ratio [2]	EC50 [4] [µM]	IC50 [3] [µM]	other results
CC(C)[C@H](NC(=O)OCc1ccccc1)C(=O)NC(Cc1ccccc1)C(=O)C(F)(F)C(=O)NCc1ccccc1 (some centres undefined)	0.001	23	~5	5	–	–
CC(C)[C@H](NC(=O)OCc1ccccc1)C(=O)NC(Cc1ccc(OCc2ccccc2)cc1)C(=O)C(F)(F)C(=O)NCc1ccccc1 (some centres undefined)	0.005	> 100	>300	0.3	–	EC50 [5]: 0.14 µM; EC50 [6]: 0.29 µM; EC50 [7]: 0.38 µM; EC50 [8]: 0.23 µM; EC50 [9]: 0.056 µM; EC50 [10]: 0.1 µM; EC50 [11]: 0.56 µM; EC50 [12]: 0.42 µM; EC50 [13]: 0.35 µM; EC50 [14]: 0.72 µM; CC50 [15]: > 100 µM; CC50 [16]: > 100 µM; EC50 [17]: 0.63 µM
